Results taken from patent US10766895B2 (Zhejiang Huahai Pharmaceutical Co., Ltd., priority 2015, dated 2020).

Tests used:
[1] = Comparative Example 1: heating palbociclib free base in n-butanol and anisole (method of WO2014128588A1); format: physicochemical; details: n-butanol (16 ml/g) and anisole (24 ml/g), heated to 95-100° C.
Excerpt: The seed crystal of crystal form A was required to be added into the reaction system to obtain a crystal form A of palbociclib free base.

[2] = all of organic solvents; cited from earlier work

- Solubility on heating [1]: remained insoluble
Structure (SMILES): CC(=O)c1c(C)c2cnc(Nc3ccc(N4CCNCC4)cn3)nc2n(C2CCCC2)c1=O [palbociclib free base, 6-acetyl-8-cyclopentyl-5-methyl-2-[[5-(piperazine-1-yl)pyridine-2-yl]amino]-8H-pyrido[2,3-D]pyrimidine-7-ketone]
- Solubility in organic solvents [2]: very poor solubility
